From patent US20250154135A1, “M-CHOLINE RECEPTOR AGONIST COMPOUND, PREPARATION METHOD THEREFOR AND USE THEREOF” (NANJING GRITPHARMA CO., LTD., priority 2022, published 2025)
Values joined by “and” are separate entries in the source; they are usually repeats but may differ in a detail not shown here. Equal values may be shown once. Where a name gives a salt, the structure may show the parent alone.

What was measured:
rabbit pupil [1] = assay: Rabbit pupil diameter change with other pilocarpine salts (Test Example 2); format: in vivo; settings: for Percentage change in pupil diameter: drug concentration 2.11%, average value ± SD
Description: Pilocarpine nitrate: with a molecular weight of 271.27 and a purity of 98%, from Nanjing Jiqun Pharmaceutical Technology Co., Ltd., prepared into a 1.38% solution using normal saline. Pilocarpine salicylate: with a molecular weight of 346.24 and a purity of 99.73%, from Nanjing Jiqun Pharmaceutical Technology Co., Ltd., prepared into a 1.76% solution using normal saline. Pilocarpine malate: with a molecular weight of 342.21 and a purity of 99.72%, from Nanjing Jiqun Pharmaceutical Technology Co., Ltd., prepared into a 1.74% solution using normal saline. Pilocarpine maleate: with a molecular weight of 324.19 and a purity of 99.76%, from Nanjing Jiqun Pharmaceutical Technology Co., Ltd., prepared into a 1.65% solution using normal saline. Pilocarpine fumarate: with a molecular weight of 324.19 and a purity of 99.74%, from Nanjing Jiqun Pharmaceutical Technology Co., Ltd., prepared into a 1.65% solution using normal saline. Pilocarpine lipoate: with a molecular weight of 414.58 and a purity of 99.56%, from Nanjing Jiqun Pharmaceutical Technology Co., Ltd., prepared into a 2.11% solution using normal saline. Note: The concentrations of the compounds were different, but they all contained an equimolar amount of pilocarpine. Each rabbit in each group was subjected to single eye drop administration in the left eye, with an administration volume of 100 μL. […] The entire measurement process was completed by the same person.

rabbit pupil [2] = assay: Rabbit pupil diameter change, pilocarpine p-toluate at different concentrations (Test Example 3); format: in vivo; settings: 1.25%
Method: Under the condition of normal saline, the onset time, strength of effect, duration of effect, and irritation of 1.25% pilocarpine hydrochloride and different concentrations (0.88%, 1.75%, 3.50%) of pilocarpine p-toluate were tested.
(§1) Each rabbit was subjected to eye drop administration in the left eye (using a pipette), with an administration volume of 100 μL.
Number of animals: 6 rabbits per compound.
Administration schedule: single administration.
• the pupil diameter of the left eye of the rabbits was measured at time points of −0.5 h (i.e., half an hour before administration), 5 min, 10 min, 15 min, 0.5 h, 3 h and 4 h relative to administration, with the measurement performed 3 times for each rabbit at each time point.

[3] = Stability tests on compound starting materials (HPLC related substances); format: physicochemical; settings: starting material
Method: Samples: compound 1, compound 2 and pilocarpine hydrochloride starting material solid particles.
High-temperature test: 1 g of each of compound 1, compound 2 and pilocarpine hydrochloride starting materials were taken and placed in an open container inside a constant temperature device at 40° C.; samples were taken at time points of day 0 and day 5, and then tested according to the key stability examination items. The stability of the active pharmaceutical ingredient itself and the trend of changes in stability under the conditions of influencing factor tests were observed.
Strong light irradiation test: 1 g of each of compound 1, compound 2 and pilocarpine hydrochloride starting materials were taken and placed in an open container inside a light irradiation box, with the illumination set at 4500 lx±500 lx; samples were taken at time points of day 0 and day 5, and then tested according to the key stability examination items.
High-humidity test: 1 g of each of compound 1, compound 2 and pilocarpine hydrochloride starting materials was taken and placed in an open container inside a constant humidity closed container at 25° C. and with a relative humidity of 75%±5%; samples were taken at day 0 and day 5, and then tested according to the requirements of the key stability examination items.
According to the records in the European Pharmacopoeia (EP), the key related substances to be examined for pilocarpine include: impurity A isopilocarpine (Z-A), impurity B pilocarpic acid (Z-B), and impurity C isopilocarpic acid (Z-C). The samples taken at different time points from the above high-temperature test, strong light irradiation test and high-humidity test were separately tested using high-performance liquid chromatography to observe the trend of changes in stability under the conditions of the influencing factor tests.
The related substances were determined according to the high-performance liquid chromatography (General Chapter 0512, Chinese Pharmacopoeia, Volume IV, 2020 Edition).
Test sample solution: an appropriate amount of each test sample was precisely weighed, dissolved in water, and diluted to prepare a solution containing 1 mg of test sample per 1 mL.
Chromatographic conditions: octadecyl bonded silica gel was used as a filler [kromasil 100-5-C18 column (4.0 mm×[…]) or a chromatographic column with equivalent performance], 0.679 g/L tetrabutylammonium dihydrogen phosphate-methanol-acetonitrile (885:55:60) (adjusted to pH 7.7 with dilute aqueous ammonia) was used as mobile phase A, and acetonitrile-water (80:20) was used as mobile phase B; gradient elution was performed according to Table 6-1, with a column temperature of 30° C., a flow rate of 1.0 mL/min, a detection wavelength of 220 nm, and a sample injection volume of 20 μL.

rabbit pupil [4] = assay: Rabbit pupil constriction after single eye drop (Test Example 1); format: in vivo, New Zealand rabbit; settings: rabbits, Test Example 1 solutions
Method: Except for group 5), the eye drop solutions of groups 1) to 12) described above contained an equimolar concentration of pilocarpine. The molar concentration of pilocarpine in the eye drop solution of group 5) was half of the molar concentration of pilocarpine in the solutions of the other 11 groups.
The effects of the eye drop solutions of groups 1) to 12) prepared above on rabbit pupil constriction and irritation were tested separately.
• Species and strain: New Zealand rabbit • Grade: normal • Source: Qinglongshan Animal Breeding Farm, Jiangning District, Nanjing • Production license No.: SCXK (Su) 2016-0008 • Animal age: about 110 days old at the time of administration • Animal body weight: about 2.5-3.5 kg at the time of administration • Animal sex: all male • Feed: rabbit pellet feed • Housing conditions: air-conditioned room, with a temperature of 18-26° C. and a relative humidity of 40%-80%.
• Digital vernier caliper: specification: 0-150 mm; measurement accuracy: 0.01 mm; manufacturer: Guilin Guanglu Measuring Instrument Co., Ltd.
as §1
• Number of animals: for JQ series compounds, 6 rabbits per compound; for compounds 1, 2 and 4, 5 rabbits per compound. • Administration schedule: single administration. Measurement indicators and time points: • for JQ series compounds, the pupil diameter of the left eye of the rabbits was measured at time points of −0.5 h (i.e., half an hour before administration), 5 min, 10 min, 15 min, 0.5 h, 3 h and 4 h relative to administration, with the measurement repeated 3 times for each rabbit at each time point (measurement time points were extended if necessary); • for compounds 1, 2 and 4, the pupil diameter of the left eye of the rabbits was measured at time points of 3 h and 4 h relative to administration, with the measurement repeated 3 times for each rabbit at each time point (measurement time points were extended if necessary).
Percentage change in pupil diameter (%) after administration=(pupil diameter after administration−pupil diameter before administration)/pupil diameter before administration×100%
The measurement result for each rabbit at each time point was represented by the average value of three measurements.

rabbit eyes = assay: Eye irritation in rabbits (Test Example 2); format: in vivo; settings: 2.11% solution
[5] = Light-5 days (4500 lx), hydrochloride
[6] = RH 75%-5 days, 25° C., hydrochloride

CC[C@@H]1C(=O)OC[C@@H]1Cc1cncn1C [pilocarpine hydrochloride, reference compound]
miosis effect on rabbit pupils 3 h after administration (rabbit pupil [1]; Table 2-1 solutions, equimolar pilocarpine): substantially no miosis effect
Percentage change in pupil diameter (rabbit pupil [2]; 5 min, average of 6 rabbits): −7.81%
Percentage change in pupil diameter (rabbit pupil [2]; 5 min, individual rabbit, hydrochloride): −6.28% and −7.23% and −8.93% and −6.51% and −15.75% and −2.17%
Percentage change in pupil diameter (rabbit pupil [2]; 10 min, average of 6 rabbits): −29.35%
Percentage change in pupil diameter (rabbit pupil [2]; 10 min, individual rabbit, hydrochloride): −29.40% and −32.93% and −28.98% and −26.64% and −36.43% and −21.69%
Percentage change in pupil diameter (rabbit pupil [2]; 15 min, average of 6 rabbits): −35.33%
Percentage change in pupil diameter (rabbit pupil [2]; 15 min, individual rabbit, hydrochloride): −40.68% and −36.99% and −33.54% and −33.71% and −42.10% and −24.95%
Percentage change in pupil diameter (rabbit pupil [2]; 0.5 h, average of 6 rabbits): −34.59%
Percentage change in pupil diameter (rabbit pupil [2]; 0.5 h, individual rabbit, hydrochloride): −36.45% and −36.62% and −38.14% and −32.89% and −39.82% and −23.64%
Percentage change in pupil diameter (rabbit pupil [2]; 3 h, average of 6 rabbits): −3.13%
Percentage change in pupil diameter (rabbit pupil [2]; 3 h, individual rabbit, hydrochloride): 4.54% and −0.58% and 0.03% and −6.71% and −16.22% and 0.16%
Percentage change in pupil diameter (rabbit pupil [2]; 4 h, average of 6 rabbits): 0.25%
Percentage change in pupil diameter (rabbit pupil [2]; 4 h, individual rabbit, hydrochloride): −0.15% and −1.79% and 2.79% and 2.49% and −2.39% and 0.54%
(Z-C) impurity C isopilocarpic acid ([3]; 40° C.-5 days): 0%
Maximum single impurity ([3]; 40° C.-5 days): 0%
(Z-A) impurity A isopilocarpine ([3]; 40° C.-5 days, hydrochloride): 0.248%
(Z-B) impurity B pilocarpic acid ([3]; 40° C.-5 days, hydrochloride): 0%
Total impurity ([3]; 40° C.-5 days, hydrochloride): 0.248%
(Z-B) impurity B pilocarpic acid ([3]; Day 0): 0%
(Z-C) impurity C isopilocarpic acid ([3]; Day 0): 0%
Maximum single impurity ([3]; Day 0): 0%
(Z-A) impurity A isopilocarpine ([3]; Day 0, hydrochloride): 0.197%
Total impurity ([3]; Day 0, hydrochloride): 0.197%
(Z-C) impurity C isopilocarpic acid ([3]; Light-5 days (4500 lx)): 0%
Maximum single impurity ([3]; Light-5 days (4500 lx)): 0%
(Z-A) impurity A isopilocarpine [3, 5]: 0.248%
(Z-B) impurity B pilocarpic acid [3, 5]: 0%
Total impurity [3, 5]: 0.248%
(Z-C) impurity C isopilocarpic acid ([3]; RH 75%-5 days, 25° C.): 0%
(Z-A) impurity A isopilocarpine [3, 6]: 0.259%
(Z-B) impurity B pilocarpic acid [3, 6]: 1.641%
Maximum single impurity [3, 6]: 0.123%
Total impurity [3, 6]: 2.023%
maximum percentage change in pupil diameter (rabbit pupil [4]): around 35%
pupil constriction (miosis) effect at 3 h after administration (rabbit pupil [4]; hydrochloride): substantially no pupil constriction effect

CC[C@@H]1C(=O)OC[C@@H]1Cc1cncn1C.O=C(O)CCCCC1CCSS1 [Pilocarpine lipoate]
Percentage change in pupil diameter (rabbit pupil [1]; 0.5 h): −40.69 ± 2.68%
Percentage change in pupil diameter (rabbit pupil [1]; 3 h): −3.11 ± 2.38%
eye irritation on administration (rabbit eyes): caused significant irritation and noticeable hyperemia
